In ChEMBL document CHEMBL5131515, “Identification of Pyridinyltriazine Derivatives as Potent panFGFR Inhibitors against Gatekeeper Mutants for Overcoming Drug Resistance” (J Med Chem, 2022):
pIC50: −log10 of the molar value.

Tests used:
[1] = molecular target: Fibroblast growth factor receptor 3 (Homo sapiens, UniProt P22607); experiment: Inhibition of wild-type FGFR3 (unknown origin) by radiometric kinase activity assay
[2] = molecular target: Fibroblast growth factor receptor 2 (Homo sapiens, UniProt P21802, N549H)
[3] = system: Fibroblast growth factor receptor 2 (Homo sapiens), P21802 [V564F]; experiment: Inhibition of FGFR2 V564F mutant (unknown origin) at 10 uM by radiometric kinase activity assay relative to control
[4] = system: Fibroblast growth factor receptor 3 (Homo sapiens), P22607 [V555M]; experiment: Inhibition of FGFR3 V555M mutant (unknown origin) at 10 uM by radiometric kinase activity assay relative to control
BaF3 [5] = experiment: cells; format: functional; conditions: Mus musculus
BaF3 [6] = experiment: Antiproliferative activity against mouse BaF3 cells harboring TEL-FGFR3 assessed as cell growth inhibition by CellTiter-Glo assay; format: functional
[7] = Antiproliferative activity against mouse BaF3 cells assessed as cell growth inhibition by CellTiter-Glo assay
AN3-CA = experiment: Antiproliferative activity against human AN3-CA cells harboring FGFR2 K310R/N549K mutant assessed as cell growth inhibition by CellTiter-Glo assay; format: functional
KMS-11 = experiment: Antiproliferative activity against human KMS-11 cells harboring FGFR3 Y373C mutant assessed as cell growth inhibition by CellTiter-Glo assay; format: functional
J82 = experiment: Antiproliferative activity against human J82 cells harboring FGFR3 K652E mutant assessed as cell growth inhibition by CellTiter-Glo assay; format: functional
[8] = molecular target: Fibroblast growth factor receptor 2 (Homo sapiens, UniProt P21802, V564F)
Description: Inhibition of FGFR2 V564F mutant (unknown origin) by radiometric kinase activity assay

[9] = molecular target: Fibroblast growth factor receptor 3 (Homo sapiens, UniProt P22607, V555M)
BaF3 [10] = experiment: Antiproliferative activity against mouse BaF3 cells harboring TEL-FGFR4 V550E mutant assessed as cell growth inhibition by CellTiter-Glo assay; format: functional
BaF3 [11] = experiment: Antiproliferative activity against mouse BaF3 cells harboring TEL-FGFR4 N535K mutant assessed as cell growth inhibition by CellTiter-Glo assay; format: functional
[12] = molecular target: Fibroblast growth factor receptor 2 (Homo sapiens, UniProt P21802); experiment: Inhibition of wild-type FGFR2 (unknown origin) by radiometric kinase activity assay
[13] = molecular target: Fibroblast growth factor receptor 4 (Homo sapiens, UniProt P22455); experiment: Inhibition of wild-type FGFR4 (unknown origin) by radiometric kinase activity assay
[14] = molecular target: Fibroblast growth factor receptor 3 (Homo sapiens, UniProt P22607, K650E)
Fibroblast growth factor receptor 3 (Homo sapiens, UniProt P22607, K650E), sequence (P22607 23-806 K650E limits assumed): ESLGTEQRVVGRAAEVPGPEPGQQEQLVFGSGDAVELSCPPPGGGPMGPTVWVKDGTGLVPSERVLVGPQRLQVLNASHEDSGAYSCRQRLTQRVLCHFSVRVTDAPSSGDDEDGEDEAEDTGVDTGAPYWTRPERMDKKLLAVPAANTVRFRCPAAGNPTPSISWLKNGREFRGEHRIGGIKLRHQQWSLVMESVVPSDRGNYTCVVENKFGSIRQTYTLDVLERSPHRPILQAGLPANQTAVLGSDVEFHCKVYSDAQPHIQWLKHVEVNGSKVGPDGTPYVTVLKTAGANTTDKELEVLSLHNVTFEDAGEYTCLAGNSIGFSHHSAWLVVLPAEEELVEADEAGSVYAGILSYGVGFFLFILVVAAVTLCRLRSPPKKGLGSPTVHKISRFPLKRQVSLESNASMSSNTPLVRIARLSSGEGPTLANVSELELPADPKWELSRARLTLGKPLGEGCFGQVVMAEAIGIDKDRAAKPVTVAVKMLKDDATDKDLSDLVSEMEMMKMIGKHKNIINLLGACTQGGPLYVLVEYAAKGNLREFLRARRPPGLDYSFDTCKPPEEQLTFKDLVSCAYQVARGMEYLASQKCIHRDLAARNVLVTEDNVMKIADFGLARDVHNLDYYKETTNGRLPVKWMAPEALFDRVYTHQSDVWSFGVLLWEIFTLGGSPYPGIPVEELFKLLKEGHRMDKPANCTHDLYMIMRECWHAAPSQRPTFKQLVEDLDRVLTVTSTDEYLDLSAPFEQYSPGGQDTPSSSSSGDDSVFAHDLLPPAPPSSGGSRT

Fibroblast growth factor receptor 2 (Homo sapiens, UniProt P21802, V564F), sequence (P21802 22-821 V564F limits assumed): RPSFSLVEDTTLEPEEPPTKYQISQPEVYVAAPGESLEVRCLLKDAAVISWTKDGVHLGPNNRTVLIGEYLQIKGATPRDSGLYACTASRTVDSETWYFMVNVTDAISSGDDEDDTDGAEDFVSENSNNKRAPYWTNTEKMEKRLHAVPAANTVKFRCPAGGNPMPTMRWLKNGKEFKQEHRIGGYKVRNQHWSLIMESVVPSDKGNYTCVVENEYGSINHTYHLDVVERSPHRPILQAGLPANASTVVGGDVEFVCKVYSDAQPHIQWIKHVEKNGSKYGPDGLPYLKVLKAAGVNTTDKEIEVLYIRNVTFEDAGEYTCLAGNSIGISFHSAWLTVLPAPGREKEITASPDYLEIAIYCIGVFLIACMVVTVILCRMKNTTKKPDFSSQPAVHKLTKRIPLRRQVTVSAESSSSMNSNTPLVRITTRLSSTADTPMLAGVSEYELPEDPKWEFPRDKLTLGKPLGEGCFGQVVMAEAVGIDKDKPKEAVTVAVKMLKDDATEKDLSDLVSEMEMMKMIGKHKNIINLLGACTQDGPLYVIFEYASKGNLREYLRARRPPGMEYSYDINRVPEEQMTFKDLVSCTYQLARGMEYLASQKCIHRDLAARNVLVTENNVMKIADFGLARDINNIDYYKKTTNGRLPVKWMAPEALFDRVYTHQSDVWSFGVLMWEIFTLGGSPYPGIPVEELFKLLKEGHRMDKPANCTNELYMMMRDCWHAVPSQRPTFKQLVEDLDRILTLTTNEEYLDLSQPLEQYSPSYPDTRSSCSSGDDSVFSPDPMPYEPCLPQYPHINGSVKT
Fibroblast growth factor receptor 2 (Homo sapiens, UniProt P21802, N549H), sequence (P21802 22-821 N549H limits assumed): as the sequence (P21802 22-821 V564F limits assumed) above, with N528H, F543V counted along it
Fibroblast growth factor receptor 3 (Homo sapiens), P22607 [V555M], sequence (P22607 whole entry V555M): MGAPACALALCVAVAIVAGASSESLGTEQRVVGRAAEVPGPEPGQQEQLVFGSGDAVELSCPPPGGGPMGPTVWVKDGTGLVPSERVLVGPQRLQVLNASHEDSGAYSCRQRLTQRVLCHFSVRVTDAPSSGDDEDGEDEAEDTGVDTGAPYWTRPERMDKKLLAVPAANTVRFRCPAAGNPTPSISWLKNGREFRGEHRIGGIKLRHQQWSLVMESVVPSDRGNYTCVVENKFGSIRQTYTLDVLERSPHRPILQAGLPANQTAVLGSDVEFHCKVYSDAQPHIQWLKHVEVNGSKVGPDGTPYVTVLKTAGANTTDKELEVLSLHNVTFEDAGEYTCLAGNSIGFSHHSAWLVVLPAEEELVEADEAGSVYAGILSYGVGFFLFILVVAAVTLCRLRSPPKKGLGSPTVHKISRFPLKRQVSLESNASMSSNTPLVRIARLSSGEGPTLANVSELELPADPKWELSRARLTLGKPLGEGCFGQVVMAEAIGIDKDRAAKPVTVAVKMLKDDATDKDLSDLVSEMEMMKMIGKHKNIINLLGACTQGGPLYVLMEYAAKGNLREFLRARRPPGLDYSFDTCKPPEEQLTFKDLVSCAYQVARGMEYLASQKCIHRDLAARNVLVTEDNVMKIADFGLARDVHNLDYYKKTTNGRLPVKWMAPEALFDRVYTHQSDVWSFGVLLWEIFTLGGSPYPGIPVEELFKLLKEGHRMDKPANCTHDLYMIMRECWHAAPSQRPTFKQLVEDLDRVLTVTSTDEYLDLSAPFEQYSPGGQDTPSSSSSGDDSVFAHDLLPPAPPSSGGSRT
Fibroblast growth factor receptor 2 (Homo sapiens), P21802 [V564F], sequence (P21802 whole entry V564F): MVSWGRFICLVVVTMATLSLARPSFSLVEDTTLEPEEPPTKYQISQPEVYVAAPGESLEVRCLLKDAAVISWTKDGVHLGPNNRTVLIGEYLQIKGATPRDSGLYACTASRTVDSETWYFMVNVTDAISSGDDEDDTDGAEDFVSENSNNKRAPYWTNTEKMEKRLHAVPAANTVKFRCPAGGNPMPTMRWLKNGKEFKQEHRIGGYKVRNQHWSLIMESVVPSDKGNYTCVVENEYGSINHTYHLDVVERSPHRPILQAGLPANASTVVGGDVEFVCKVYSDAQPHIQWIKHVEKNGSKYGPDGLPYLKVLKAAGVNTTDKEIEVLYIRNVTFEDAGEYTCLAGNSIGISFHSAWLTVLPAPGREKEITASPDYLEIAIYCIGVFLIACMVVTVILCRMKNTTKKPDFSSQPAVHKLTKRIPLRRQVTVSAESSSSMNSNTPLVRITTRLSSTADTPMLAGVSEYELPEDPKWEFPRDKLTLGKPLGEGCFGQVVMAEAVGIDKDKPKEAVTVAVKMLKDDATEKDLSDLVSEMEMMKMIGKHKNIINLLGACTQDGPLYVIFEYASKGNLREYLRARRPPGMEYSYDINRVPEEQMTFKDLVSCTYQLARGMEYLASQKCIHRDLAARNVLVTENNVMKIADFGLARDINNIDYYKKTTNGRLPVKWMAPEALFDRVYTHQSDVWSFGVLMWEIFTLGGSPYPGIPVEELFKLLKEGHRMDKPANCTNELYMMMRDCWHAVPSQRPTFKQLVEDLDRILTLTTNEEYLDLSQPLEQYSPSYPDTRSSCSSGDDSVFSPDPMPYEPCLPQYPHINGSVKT
Fibroblast growth factor receptor 3 (Homo sapiens, UniProt P22607), sequence (P22607 whole entry): as the sequence (P22607 whole entry V555M) above, with M555V counted along it
Fibroblast growth factor receptor 3 (Homo sapiens, UniProt P22607, V555M), sequence (P22607 23-806 V555M limits assumed): as the sequence (P22607 23-806 K650E limits assumed) above, with V533M, E628K counted along it
Fibroblast growth factor receptor 4, sequence (P22455 whole entry): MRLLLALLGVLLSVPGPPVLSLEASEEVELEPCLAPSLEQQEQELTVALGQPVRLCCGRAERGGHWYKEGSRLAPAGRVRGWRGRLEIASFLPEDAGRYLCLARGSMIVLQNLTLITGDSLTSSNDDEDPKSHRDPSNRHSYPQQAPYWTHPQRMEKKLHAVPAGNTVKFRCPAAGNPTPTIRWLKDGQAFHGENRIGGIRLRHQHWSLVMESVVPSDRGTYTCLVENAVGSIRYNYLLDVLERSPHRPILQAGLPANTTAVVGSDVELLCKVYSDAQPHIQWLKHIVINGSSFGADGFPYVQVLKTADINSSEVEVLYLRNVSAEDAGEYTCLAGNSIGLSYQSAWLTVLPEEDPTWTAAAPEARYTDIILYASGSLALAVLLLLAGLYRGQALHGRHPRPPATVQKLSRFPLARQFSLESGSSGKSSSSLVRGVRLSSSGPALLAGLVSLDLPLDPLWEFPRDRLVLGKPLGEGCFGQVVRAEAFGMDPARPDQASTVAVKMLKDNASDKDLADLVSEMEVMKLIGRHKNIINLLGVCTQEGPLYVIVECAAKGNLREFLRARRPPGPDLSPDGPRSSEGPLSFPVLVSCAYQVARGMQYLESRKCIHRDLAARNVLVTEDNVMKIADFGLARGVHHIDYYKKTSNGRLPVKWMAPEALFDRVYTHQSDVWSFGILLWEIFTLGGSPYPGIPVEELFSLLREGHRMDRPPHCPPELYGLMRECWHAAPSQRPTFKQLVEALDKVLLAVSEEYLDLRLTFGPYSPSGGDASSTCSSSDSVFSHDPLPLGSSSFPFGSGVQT
Fibroblast growth factor receptor 2 (Homo sapiens, UniProt P21802), sequence (P21802 whole entry): as the sequence (P21802 whole entry V564F) above, with F564V counted along it

SMILES	pIC50 [1]	pIC50 [2]	inhibition [3] [%]	inhibition [4] [%]	GI50 (BaF3 [5]) [nM]	GI50 (BaF3 [6]) [nM]	GI50 ([7]; BaF3 cells) [nM]	GI50 (AN3-CA) [nM]	GI50 (KMS-11) [nM]	GI50 (J82) [nM]	pIC50 [8]	pIC50 [9]	GI50 (BaF3 [10]) [nM]	GI50 (BaF3 [11]) [nM]	GI50 ([7]; baf3) [nM]	pIC50 [12]	pIC50 [13]	pIC50 [14]
COc1cc(OC)c(Cl)c(Nc2ncccc2-c2ncnc(NCCN(C)C)n2)c1Cl	6.08	6.43	< 50	< 50	> 5000	4040	> 5000	1940	3570	11200								
COc1cc(N2C[C@@H](C)N[C@@H](C)C2)ccc1Nc1ncnc(-c2cccnc2Nc2c(Cl)c(OC)cc(OC)c2Cl)n1	7.62	7.48		< 50	2710	286	2730	818	872	3330	5.45							
COc1cc(OC)c(Cl)c(Nc2ncccc2-c2ncnc(Nc3cnn(C)c3)n2)c1Cl	8.62	> 9.30			731	5	> 5000	31	315	2320	5.55	6.79						
COc1cc(OC)c(Cl)c(Nc2ncccc2-c2ncnc(Nc3ccccc3)n2)c1Cl	8.34	8.60	< 50	< 50	> 5000	16	> 5000	136	1420	3620								
COc1cc(OC)c(Cl)c(Nc2ncccc2-c2ncnc(Nc3ccc(N(C)C)cc3)n2)c1Cl	7.82	7.83	< 50	< 50	> 5000	164	> 5000	591	> 50000	14800								
COc1cccc(Nc2ncnc(-c3cccnc3Nc3c(Cl)c(OC)cc(OC)c3Cl)n2)c1	8.01	8.20	< 50	< 50	> 5000	30	> 5000	202	895	4880								
COc1cc(OC)c(Cl)c(Nc2ncccc2-c2ncnc(N)n2)c1Cl	7.95	7.50	< 50	< 50	> 5000	276	> 5000	753	3270	6560								
CCN1C(=O)N(c2c(F)c(OC)cc(OC)c2F)Cc2cnc3[nH]c(CN4CCOCC4)cc3c21 [PEMIGATINIB]					2070	5	> 5000	132	232	4290			> 5000	4500				
COc1cc(OC)cc(N(CCNC(C)C)c2ccc3ncc(-c4cnn(C)c4)nc3c2)c1 [ERDAFITINIB]					761	5		48	390	3800			> 5000	4010	> 5000			
C=CCn1cc(Nc2ncnc(-c3cccnc3Nc3c(Cl)c(OC)cc(OC)c3Cl)n2)cn1	8.85	7.59			1820	10	> 5000	18800	341	991	5.51	5.77						
COc1cc(OC)c(Cl)c(Nc2ncccc2-c2ncnc(Nc3ccc(N4CCN(C(C)=O)CC4)cc3)n2)c1Cl	8.09	8.35			3020	30	> 5000	63	1500	6010	5.52	5.95						
COc1cc(OC)c(Cl)c(Nc2ncccc2-c2ncnc(Nc3ccc(N4CCOCC4)nc3)n2)c1Cl	8.06	8.51	< 50		> 5000	664	> 5000	781	2020	11500		5.39						
CCN1CCN(c2ccc(Nc3cc(-c4cccnc4Nc4c(Cl)c(OC)cc(OC)c4Cl)ncn3)cc2)CC1	8.54	8.22			2000	8	3250	263	479	4290		6.33	3200	3370		8.74	7.30	8.07
COc1cc(OC)c(Cl)c(Nc2ncccc2-c2ncnc(Nc3cnn(C4CCOCC4)c3)n2)c1Cl	8.60	7.86			3160	5	> 5000	105	1380	6230	5.56	5.93						
COc1cc(N2CCN(C)CC2)ccc1Nc1ncnc(-c2cccnc2Nc2c(Cl)c(OC)cc(OC)c2Cl)n1	7.69	7.12			2130	282	2790	689	730	7260	5.58	5.11						
COc1cc(OC)c(Cl)c(Nc2ncccc2-c2ncnc(Nc3ccc(N4CCOCC4)cc3)n2)c1Cl	7.80	7.42	< 50	< 50	> 5000	393	> 5000	1130	12200	22400								
COc1cc(OC)c(Cl)c(Nc2ncccc2-c2ncnc(Nc3cnn(CCCN(C)C)c3)n2)c1Cl	8.92	8.40			897	5	2730	421	189	510	5.95	6.50						
COc1cc(OC)c(Cl)c(Nc2ncccc2-c2ncnc(Nc3ccc(N4CCC(O)CC4)cc3)n2)c1Cl	8.08	8.22			3880	40	> 5000	117	1270	8250	5.66	5.74						
